Here are results for three molecules from publication PMC5486078, “Molecular Cloning and Functional Characterization of a Hexokinase from the Oriental River Prawn Macrobrachium nipponense in Response to Hypoxia” (International Journal of Molecular Sciences, 2017).

Where two headings read alike, the source gives them in different places.

Data set [1] concerns the target T1, rMnHK (recombinant M. nipponense hexokinase) (Macrobrachium nipponense, UniProt A0A220NLA7).
T1 construct: pET-28a, His tag, E. coli BL21 (DE3); about 70 kDa on SDS-PAGE
T1 sequence (A0A220NLA7 1-449): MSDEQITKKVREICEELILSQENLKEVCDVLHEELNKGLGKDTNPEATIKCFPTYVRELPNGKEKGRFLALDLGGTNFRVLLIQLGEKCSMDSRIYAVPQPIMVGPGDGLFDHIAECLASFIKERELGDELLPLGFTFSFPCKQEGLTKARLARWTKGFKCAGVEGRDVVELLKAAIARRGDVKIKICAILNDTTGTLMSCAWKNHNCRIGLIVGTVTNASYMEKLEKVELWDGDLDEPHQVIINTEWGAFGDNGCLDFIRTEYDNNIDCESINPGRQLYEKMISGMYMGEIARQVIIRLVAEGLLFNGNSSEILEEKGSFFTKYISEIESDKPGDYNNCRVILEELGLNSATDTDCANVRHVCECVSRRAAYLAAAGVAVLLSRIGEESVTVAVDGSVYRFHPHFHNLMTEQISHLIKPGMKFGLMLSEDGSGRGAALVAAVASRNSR
Briefly: enzyme inhibition, Lineweaver-Burk plot. The format is biochemical. The text has this:
enzyme inhibition, Lineweaver-Burk plot on rMnHK (recombinant M. nipponense hexokinase)

Substrate in data set [2]: Nc1ncnc2c1ncn2[C@@H]1O[C@H](COP(=O)(O)OP(=O)(O)OP(=O)(O)O)[C@@H](O)[C@H]1O
The experiment in a line: steady-state kinetics, Michaelis-Menten / Lineweaver-Burk plot. The format is biochemical, Macrobrachium nipponense. The note with it: co-substrate hexose; assay pH and temperature not stated.

In the case of `O=P(O)(O)OP(=O)(O)O` [PPi], in data set [1] (read-out: Inhibitor Studies (Ki) (mM) / PPi), the Ki was determined as 0.011 mM. Take `Nc1ncnc2c1ncn2[C@@H]1O[C@H](COP(=O)(O)OP(=O)(O)O)[C@@H](O)[C@H]1O` [ADP]: in data set [1] (read-out: Inhibitor Studies (Ki) (mM) / ADP), the Ki came to 0.76 mM.

B1: rMnHK (recombinant M. nipponense hexokinase) (Macrobrachium nipponense) (protein)
chain: T1 sequence (A0A220NLA7 1-449)
notes: pET-28a, His tag, E. coli BL21 (DE3); about 70 kDa on SDS-PAGE
Consider B1, for which the Km in data set [2] came to 0.88 ± 0.6 mM.
